Experimental data as given in patent US20220111044A1, “WHOLE CELL TUMOR VACCINES AND METHODS OF USE THEROF” (CHILDREN'S NATIONAL MEDICAL CENTER, priority 2019, published 2022).

What was measured:
[1] = tested on: PD-L1 on Neuro2a and AgN2a cells; assay: PD-L1 surface expression after IFNγ stimulation, mouse neuroblastoma cell lines (flow cytometry); assay type: cell-based
Source text: (§1) The expression of PD-L1 on human neuroblastoma cell lines SY5Y and SK-N-SH (non-NMYC amplified) had similar changes with exposure to IFNγ. […] Representative tumors were dissected from naïve mice (I, V, IX, and XIII) and from mice after receipt of Id2kd vaccine (II, VI, X, and XIV), Id2kd plus PD-L1 antibody (III, VII, XI, and XV), and Id2kd plus CTLA-4 antibody (IV, VIII, XII, and XVI). Hematoxylin and eosin (H&E) staining (I±VIII) and immunofluorescence double staining (IX-XVI) for CD3 and PD-L1 were performed. The nuclei were stained with 4′,6-diamidino-2-phenylindole (DAPI). Representative micrographs from each cohort are shown. Areas of necrotic tissues are marked with black broken lines and coincide with areas of inflammatory cell infiltrates. […]
(§2) FIGS. 5A and 5B show PD-L1 is expressed at 3.7-fold-lower levels on aggressive mouse neuroblastoma cell line AgN2a, as evidenced by flow cytometry (FIG. 5A) and real-time quantitative PCR (RT-qPCR) (p<0.005, Student t test; FIG. 5B). […]
Cells from mouse tumor digests and mouse splenocytes were stained with the fluorescently conjugated antibodies described above. […] Data were analyzed using the FlowJo program (Treestar, Ashland, Oreg.). […]
(§3) A possible explanation may be the differential constitutive expression of PD-L1 by tumor cells. […] The response of PD-L1 expression to IFNγ stimulation was also determined.

[2] = tested on: PD-L1 on SK-N-SH, SH-SY5Y and IMR-32 cells; assay: PD-L1 expression after IFNγ stimulation, human neuroblastoma cell lines; assay type: cell-based
Source text: as §1, with “infiltrates. Panel 1 (I-IV) and panel 3 (IX-XII) are 40× and 100× original magnification, respectively.” for “infiltrates.”
as §2, §3

[3] = tested on: ApoE; assay: IFNγ ELISA of splenocytes cocultured with Myc-suppressed irradiated B16 cells with ApoE agonist or anti-ApoE antibody; assay type: cell-based, mouse
Protocol: IFNγ was measured at 48 hours of culture (pg/ml). S: splenocytes; NS: naïve splenocytes; VS: vaccinated splenocytes; S1S: splenocytes dissected from survivor mouse; Treated: B16 cells expose to 0.25 μM BET/0.25 μM JQ1 for 4 days.
IFNγ production was quantified by ELISA at 48 hours.

Substance	PD-L1 up-regulation ([1]; AgN2a, highest concentrations tested)	PD-L1 surface expression ([1]; Neuro2a, 24 hours of stimulation)	PD-L1 up-regulation ([2]; MYCN-amplified IMR-32, highest concentrations tested)	PD-L1 expression ([2]; SK-N-SH and SH-SY5Y (non-MYCN amplified), increasing doses)	IFNγ production, fold reduction ([3]; 0.3, 3 and 9 μM, 48 hours, ELISA, FIG. 10A)	IFNγ secretion from splenocytes ([3]; 48 hours of culture, FIGS. 10A and 10B)	TNFα and Rantes production ([3]; co-culture with vaccinated splenocytes)
IFNγ	failed to up-regulate PD-L1	increase in a dose-dependent manner	failed to up-regulate PD-L1	rises markedly			
LRVRLASHLRKLRKRLL (SEQ ID NO: 1) (COG133) [ApoE agonist peptide fragment]					6 fold reduction	significantly suppressed in a dose dependent manner	repressed
